Laboratory results reported in US20250041313A1, “COMBINATION THERAPY FOR TREATMENT OF CANCER” (CITY OF HOPE, priority 2023, published 2025).

Experiments:
SBC3 cells [1] = test: Imaris quantification of mitochondrial and nuclear areas/morphology; format: cell-based, human
Procedure: Imaris 9.9.0 (Bitplane, AG), with Surfaces and Cells modules, was used to generate mitochondria morphology data from 2D images and 2D Z-stack subsets. Surfaces were used to evaluate individual mitochondria from cell monolayers and spheroids. Detection parameters were optimized for visible mitochondria and nuclei in each group with varying signal intensities. Roundness ratios were calculated from Surface generated Bounding Box 00 Length measurements. Object lengths less than 0.1 μm were excluded, and lengths greater than 1.26 μm were separately analyzed as clusters. Thresholds were uniformly applied to roundness ratios to categorize mitochondria morphology as elongated (<0.599), intermediate (≥0.600-0.649), or round/fragmentated (≥0.650). The percentage of cells from total number is based on a ratio. A perfectly round object has a ratio of 1.0. The Cells module was used to detect and quantify mitochondria and nucleus area from cell monolayers. Identical parameters were applied to all groups with cell boundary detection based on mitochondria signals. Imaris includes nuclei in cytoplasm measurements, so mitochondrial area is calculated by subtracting nucleus area from cell cytoplasm area. Abnormal nuclei were excluded (<100 μm^2, >750 μm^2).
MitoTracker Red and Hoechst 33342 were used to validate Teri and Leflu effects on intact mitochondrial morphology in SBC3 and SBC5 cells. M1 and MDIVI1 compounds were used as positive controls because they are promoters of mitochondrial fusion. Mitochondrial and nuclear areas were quantified by analyzing object surface area and intensity in Imaris 9.9.0.

SBC3 xenograft [2] = test: SBC3 mouse xenograft, Carbo/Leflu study; format: in vivo
Procedure: (§1) Athymic nude nu/nu mice were obtained from Charles River, Wilmington, MA, and were acclimated for a week before beginning the experiment. All animal experiments were carried out in accordance with a protocol approved by the Institutional Animal Care and Use Committee COH (IACUC #16004). For treatments, mice were divided into 4 groups with five mice per group and subcutaneously injected into one flank with 2×10^6 SBC3 or SBC5 cells suspensions in 100 μl of PBS. Treatment started on the 14th day when tumors became palpable. Two in vivo studies were done in this project. SBC3 and SBC 5 xenograft with i) vehicle control, ii) […] 50 mg/kg, iii) Leflu 7.5 mg/kg, and iv) […]/Leflu. SBC3 with i) vehicle control, ii) Lur 0.5 mg/kg, iii) Leflu 3.8 mg/kg, and iv) Lur/Leflu. Treatments were given to mice via i.p. twice a week for 6 weeks. Animals were examined daily for signs of tumor growth. Tumors were measured in two dimensions using calipers and body weights were recorded. Animals were photographed on days 1, 5, 10, 15, 20, 25, 30, 35, and 40 after treatment. Tumors were removed on day 40 and photographed. At the end of the study, the mice were euthanized by CO2 asphyxiation followed by cervical dislocation. The tumor weights were compared between groups using an unpaired Student's t-test. A portion of the tumor was fixed in 10% buffered formaldehyde solution and paraffin-embedded for immuno-staining. FFPE tumor sections were stained with pDRP Ser^616 antibody. Tumor sections were deparaffinized and rehydrated, followed by heat-mediated antigen retrieval (pH 6, Dako). After permeabilization and blocking, tumor sections were stained with pDRP1 Ser^616 antibody overnight, washed and incubated with Alexa 488 secondary antibody for one hour, mounted and observed on an LSM 880 with a 10×/0.45 NA objective (Carl Zeiss). Immunofluorescent confocal images were acquired for each treatment (magnification:100×). Mean immunofluorescence intensities were calculated with ZEN 2.3 Lite software.

SBC3 xenograft [3] = test: SBC3 mouse xenograft, Lur/Leflu study; format: in vivo; conditions: for tumor weight at end of study: Lur 0.5 mg/kg, Leflu 3.8 mg/kg, i.p. twice a week; for reduction in tumor size/weight: vs control
Procedure: as §1

H446 spheroids [4] = test: Immunoblotting of spheroid lysates; format: cell-based, human; conditions: for DRP1 phosphorylation at Ser616: Teri 1600 and 3200 nM
Procedure: (§2) SCLC total cell lysates were prepared using RIPA (radioimmunoprecipitation assay lysis buffer) lysis buffer. Protein concentration was determined using DC Protein Assay Kit Bio-Rad (Hercules, CA). Samples were then run on SDS-PAGE in 4-15% polyacrylamide gels and transferred onto Immobilon membranes (Millipore, MO), blocked, incubated with specific primary antibodies at 4° C. overnight, and subsequently developed with secondary antibodies. The following primary antibody were used: pan-Actin, Phospho-DRP1 (Ser^616), Phospho-DRP1 (Ser^637), Histone H2B (V^119), Phospho-Histone H2A.X (Ser^139), Phospho-P53 (Ser^15), P-53, Cleaved PARP (Asp^214) (D64E10), Phospho-Chk1 (Ser^345) (133D3) and p21 were from Cell Signaling Technology (City of Industry, CA), β-Actin (Sigma-Aldrich, St. Luis, MO), Phospho RNA Polymerase II (S2) antibody (Bethyl Lab, Montgomery, TX), RNA Polymerase II CTD4H8 (BioLegend, San Diego, CA), DHODH (E-8), DRP1 (C-5), GAPDH (0411), c-Myc (9E10), Tom20 (F-10), FisI (B-5), OPA1 (D-9), antibodies from Santa Cruz Biotechnology (Dallas, TX) and MFN2 (Abcam, Boston, MA) and Chk1, MDM2, Cyclin CDK4 and D1, and E2F1 (Proteintech, Rosemont, IL).
SBC3 and H446 cells were plated at a density of 10,000 cells per well in 96-well ULA round-bottomed plates (S-Bio, Hudson, NH) and incubated for 72 h at 37° C., 5% CO2, and 95% humidity. Spheroids were transferred to low cell attachment dishes, grown for two days, and treated with drug. After treatment, spheroid samples were run with Western blot assay. For spheroid mitochondria visualization, they were stained with 250 nM MitoTracker® Red CMXRos and Hoechst from ThermoFisher Scientific (Waltham, MA) for 2 h after drug treatment. Spheroids were washed, fixated with 4% PFA, transferred into 96-well flat glass-bottom black microplate (Cellvis, Mountain View, CA), and mounted in wells.

H446 spheroids [5] = test: Spheroid ATP assay (Cell titer glo); format: cell-based, human; conditions: 72 h, Teri 1600 nM, Lur 1600 pM, Teri/Lur 1600 nM/pM
Procedure: Cell titer glo/ATP assay (Promega, Madison, WI) was used for ATP measurement in spheroids. After 72 h of drug treatments, intracellular spheroid's ATP concentration was measured by luminescence following the manufacturer protocol using Tecan Spark 10 plate reader.

SBC3 cells [6] = test: Immunoblotting of cell lysates (pDRP1, p53, DNA damage markers); format: cell-based, human
Procedure: as §2

| SMILES | Mitochondrial elongation (Airyscan imaging) (SBC3 cells [1]; SBC3) | effect on mitochondrial or nuclear areas (SBC3 cells [1]; SBC3) | pDRP1 Ser616 immunofluorescence in tumor sections (SBC3 xenograft [2]; SBC3 xenograft FFPE tumors) | reduction in tumor size/weight (SBC3 xenograft [2]; SBC3 xenograft, day 40, vs control) | average final tumor weight at end of study (day 40) (SBC3 xenograft [2]; SBC3 xenograft, Carbo 50 mg/kg, Leflu 7.5 mg/kg, i.p. twice a week) | tumor weight at end of study (SBC3 xenograft [3]) | reduction in tumor size/weight (SBC3 xenograft [3]) | CDK4 (H446 spheroids [4]) | DRP1 phosphorylation at Ser616 (H446 spheroids [4]) | ATP level compared with the control (H446 spheroids [5]) | ratio of pDRP1 (Ser616) to pDRP1 (Ser637) (SBC3 cells [6]; SBC3, densitometry) | DRP1 expression level (SBC3 cells [6]; SBC3, immunoblot) | DRP1 phosphorylation at Ser616, and Ser637 (SBC3 cells [6]; SBC3, immunoblot) | Mitochondrial area (SBC3 cells [1]; SBC3, 10 μM) | Nuclear size (area) (SBC3 cells [1]; SBC3, 10 μM) | Mitochondrial area (SBC3 cells [1]; SBC3, 20 μM) | Nuclear size (area) (SBC3 cells [1]; SBC3, 20 μM) | p21 (H446 spheroids [4]) |
| --- | --- | --- | --- | --- | --- | --- | --- | --- | --- | --- | --- | --- | --- | --- | --- | --- | --- | --- |
| Cc1oncc1C(=O)Nc1ccc(C(F)(F)F)cc1 [Leflunomide, leflunomide] | visible | did not affect | significant decrease | ~36% | 1.01 ± 0.14 g | 1.39 ± 0.12 g | ~22% |  |  |  |  |  |  |  |  |  |  |  |
| COc1ccc2[nH]c3c(c2c1)CCN[C@]31CS[C@@H]2c3c(OC(C)=O)c(C)c4c(c3[C@H](COC1=O)N1[C@@H]2[C@H]2c3c(cc(C)c(OC)c3O)C[C@@H]([C@@H]1O)N2C)OCO4 [Lurbinectedin, lurbinectedin] |  |  |  |  |  | 1.09 ± 0.11 g | ~39% | inactivated | reduction | ~60% |  |  |  |  |  |  |  |  |
| C/C(O)=C(\C#N)C(=O)Nc1ccc(C(F)(F)F)cc1 [Teriflunomide, teriflunomide] | visible |  |  |  |  |  |  |  | dose-dependent inhibition | approximately 80% | significantly decreased in a dose-dependent manner | unaffected | significantly inhibited | 569±19.9 μm^2 | 386.8±10.86 μm^2 | 604.8±28.9 μm^2 | 423.5±16.57 μm^2 | strongly elevated |
